Assay results published in patent US20230218765A1, “SMALL MOLECULE DEGRADERS OF SHP2 PROTEIN” (THE REGENTS OF THE UNIVERSITY OF MICHIGAN, priority 2020, published 2023).
Where two headings read alike, the source gives them in different places.

Tests used:
[1] = test system: MV4;11 cell line; test: Cell growth assay (WST-8) in MV4;11; type: cell-based; details: for IC50: MV4;11, 4 days, read-out: IC50, cell growth inhibition
Experimental: (§1) Cell viability was evaluated with a WST-8 assay (Dojindo) following the manufacturer’s instructions. Briefly, cells were seeded in 96-well cell culture plates at a density of 10,000-20,000 cells/well in 200 µL for MV4;11 cell line or 2,000-3,000 for KYSE-520 cell line of culture medium containing serial dilution of testing compounds. After 4 days of treatment, cell growth was measured by a lactate dehydrogenase-based WST-8 assay (Dojindo Molecular Technologies) using a Tecan Infinite M-1000 multimode microplate reader (Tecan US, Morrisville, NC). The WST-8 reagent was added to each well, and cells were incubated for an additional 1-2 h and read at 450 nm. The readings were normalized to the vehicle-treated cells, and the IC50 was calculated by nonlinear regression analysis using the GraphPad Prism 6 software.
(§2) Briefly, Cells were treated with indicated doses for 4 days and cell viability was determined by a colorimetric WST-8 assay.

[2] = molecular target: T1, SHP2 (Homo sapiens, UniProt Q06124); test: SHP2 allosteric inhibition assay; type: biochemical; details: 0.5 nM SHP2, 0.5 µM bisphosphorylated IRS1 peptide, DiFMUP substrate
T1 sequence (Q06124 1-593): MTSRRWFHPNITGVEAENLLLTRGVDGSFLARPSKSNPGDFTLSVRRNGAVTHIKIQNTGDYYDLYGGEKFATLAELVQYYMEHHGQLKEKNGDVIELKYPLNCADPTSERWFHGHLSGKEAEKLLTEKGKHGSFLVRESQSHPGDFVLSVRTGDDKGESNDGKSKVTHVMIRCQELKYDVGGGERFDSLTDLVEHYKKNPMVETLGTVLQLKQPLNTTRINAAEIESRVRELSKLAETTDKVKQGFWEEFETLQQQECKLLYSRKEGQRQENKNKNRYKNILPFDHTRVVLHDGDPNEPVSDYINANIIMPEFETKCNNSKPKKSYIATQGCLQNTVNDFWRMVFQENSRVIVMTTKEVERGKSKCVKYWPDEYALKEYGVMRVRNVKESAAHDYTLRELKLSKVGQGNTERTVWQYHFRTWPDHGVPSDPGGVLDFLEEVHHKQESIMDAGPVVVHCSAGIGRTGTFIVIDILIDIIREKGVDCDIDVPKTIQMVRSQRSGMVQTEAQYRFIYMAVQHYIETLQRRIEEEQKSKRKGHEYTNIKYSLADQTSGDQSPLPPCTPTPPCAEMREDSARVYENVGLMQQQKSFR
Experimental: Assay buffer conditions: 60 mM HEPES, pH 7.2, 75 mM NaCl, 75 mM KCl, 0.05% P-20, 5 mM DTT,1 mM EDTA. 0.5 nM of SHP2 was incubated with 0.5 µM of bisphosphorylated IRS1 peptide and 100 µM (top concentration 3X dilution) of the inhibitory compounds. After incubation 60 min at RT, 5 µl 200 µM substrate DiFMUP (Invitrogen) was added and incubated another 30 min at RT. […] The fluorescence signal was detected by CLARIOstar (BMG tech), excitation wavelength was 340 nm and emission wavelength was 450 nm. The inhibitor dose-response curves were analyzed by Graphpad Prism 8.

[3] = test system: KYSE520 cell line; test: Cell growth assay (WST-8) in KYSE520; type: cell-based; details: for IC50: KYSE520, 4 days, read-out: IC50, cell growth inhibition
Experimental: as §1, §2

[4] = test system: phosphorylation of ERK; test: Inhibition of ERK phosphorylation (Western blot) in KYSE520 cells; type: cell-based; details: for concentration effective in reducing the level of pERK: KYSE520, 48 h
Experimental: (§3) Western blotting and quantification were performed with regular western blot method and band quantification was performed using ImageJ. Treated cells were lysed by RIPA buffer supplemented with protease and phosphatase inhibitors. The cell lysates were separated by 4-12% SDS-PAGE gels and blotted into PVDF (polyvinylidene difluoride) membranes. The net protein bands and loading controls are calculated by deducting the background from the inverted band value. The final relative quantification values are the ratio of the net band to net loading control.
(§4) GAPDH was used as a loading control. (FIG. 3A and FIG. 3B).

[5] = molecular target: T1, SHP2; test: SHP2 degradation by Western blot in MV4;11 cells; details: for % of SHP2 protein degradation in MV4;11 cell line: 0.1 µM
Experimental: (§5) Western blotting and quantification were performed with regular western blot method and band quantification was performed using ImageJ. Treated cells were lysed by RIPA buffer supplemented with protease and phosphatase inhibitors. […] The net protein bands and loading controls are calculated by deducting the background from the inverted band value. The final relative quantification values are the ratio of the net band to net loading control.
(§6) The treated cells were harvested and the level of SHP2 protein was examined by blot analysis. GAPDH was used as a loading control.
(§7) SHP2 protein was examined by Western blotting and the protein level was quantified by densitometry and normalized to the corresponding density of the GAPDH protein. […] Cells were treated with 100 nM of SHP2-D26 for different times. SHP2 protein was examined by Western blotting and the GAPDH protein was used as the loading control.

[6] = test system: phosphorylation of ERK; test: Inhibition of ERK phosphorylation (Western blot) in MV4;11 cells; type: cell-based; details: for concentration for complete inhibition of pERK: MV4;11, 48 h
Experimental: as §3, §4

[7] = molecular target: T1, SHP2; test: SHP2 degradation by Western blot in KYSE520 cells
Experimental: as §5, §6, §7

| SMILES | IC50 ([1]; Homo sapiens, 96 h) [nM] | IC50 ([3]; Homo sapiens, KYSE-520, 96 h) [nM] | concentration effective in reducing the level of pERK [4] | % of SHP2 protein degradation in MV4;11 cell line [5] [%] | concentration for complete inhibition of pERK [6] | % of SHP2 protein degradation in KYSE520 cell line ([7]; 0.1 µM) [%] | % of SHP2 protein degradation in KYSE520 cell line ([7]; 1 µM) [%] | further results |
| --- | --- | --- | --- | --- | --- | --- | --- | --- |
| CC(=O)Nc1cccc(Sc2ncc(N3CCC(C)(N)CC3)nc2N)c1Cl [Compound 5, N-(3-((3-amino-5-(4-amino-4-methylpiperidin-l-yl)pyrazin-2-yl)t′hio)-2-chlorophenyl)acetamide] | 6600 | 39400 |  |  |  |  |  | IC50 [2]: 98.7 nM |
| Cc1ncsc1-c1ccc([C@@H](C)NC(=O)[C@H]2C[C@H](O)CN2C(=O)[C@H](NC(=O)CCCCCCCCN2CCN(C(=O)CCC(=O)Nc3cccc(Sc4ncc(N5CCC(C)(N)CC5)nc4N)c3Cl)CC2)C(C)(C)C)cc1 [Compound 26] | 9.9 | 660 | 100 nM | >95 | 100 nM | >95 | >95 | times more potent than SHP099 in inhibition of pERK ([4]; KYSE520): > 30 times; times more potent than SHP099 in cell growth inhibition ([1]; MV4;11): 100 times; times more potent than compound 4 in cell growth inhibition ([1]; MV4;11): > 400 times; times more potent than compound 5 in cell growth inhibition ([1]; MV4;11): > 600 times; DC50 ([5]; read-out: DC50 (concentration needed to induced targeted protein degradation by 50%), MV4;11, 12 h): 2.6 nM; times more potent than SHP099 in inhibition of pERK ([6]; MV4;11): > 30 times; time to reduce the SHP2 protein level ([7]; KYSE520, 100 nM): ≤ 4 h; treatment time for essentially complete SHP2 depletion ([7]; KYSE520, 100 nM): 8 h; DC50 ([7]; read-out: DC50 (concentration needed to induced targeted protein degradation by 50%), KYSE520, 12 h): 6 nM; times more potent than SHP099 in inhibiting cell growth ([3]; KYSE520): 28 times; times more potent than compound 4 in inhibiting cell growth ([3]; KYSE520): 64 times; times more potent than compound 5 in inhibiting cell growth ([3]; KYSE520): 60 times |
| Cc1ncsc1-c1ccc([C@@H](C)NC(=O)[C@H]2C[C@H](O)CN2C(=O)[C@H](NC(=O)CCCCCCCOc2ccc(NC(=O)CCC(=O)Nc3cccc(Sc4ncc(N5CCC(C)(N)CC5)nc4N)c3Cl)cc2)C(C)(C)C)cc1 [Compound 28] |  |  |  | 90 |  | >95 | >95 |  |
| Cc1ncsc1-c1ccc([C@@H](C)NC(=O)[C@H]2C[C@H](O)CN2C(=O)[C@H](NC(=O)CCCCCCCCCCCNC(=O)CC(=O)Nc2cccc(Sc3ncc(N4CCC(C)(CN)CC4)nc3N)c2Cl)C(C)(C)C)cc1 [Compound 40] |  |  |  | >95 |  | >95 | >95 |  |
| Cc1ncsc1-c1ccc([C@H](C)NC(=O)[C@@H]2C[C@@H](O)CN2C(=O)[C@@H](NC(=O)CCOCCOCCOCCNC(=O)CC(=O)Nc2cccc(Sc3ncc(N4CCC5(CCC[C@@H]5N)CC4)nc3N)c2Cl)C(C)(C)C)cc1 [Compound 42] |  |  |  | 94 |  | >95 | >95 |  |
| CC1(N)CCN(c2cnc(-c3cccc(Cl)c3Cl)c(N)n2)CC1 [SHP099, reference compound] |  |  | > 3,000 nM |  | > 3,000 nM |  |  | IC50 [1]: 1000 nM; IC50 [3]: 18200 nM |
